Reference: patent publication US9499550B2 (BRISTOL-MYERS SQUIBB COMPANY, priority 2012, dated 2016)
Like-named read-outs stand apart in the source and are kept apart here.

Tests used:
[1] = test system: HCV genotype 1a (H77 strain) replicon in HUH-7 cells; experiment: HCV replicon luciferase reporter assay, genotype 1a; type: cell-based; conditions: Hepatitis C virus, Huh-7, 72 h, HCV genotype 1a replicon luciferase, 3 days incubation
In short: (§1)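 Replicon inhibition for both genotypes was measured as Renilla luciferase signal (EnduRen, 7.5 μM final, 2 h) after 3-day, 37° C exposure of replicon-bearing HUH-7 cells in 4% FCS DMEM, 0.5% DMSO. The 1b construct carries S1179I; the 1a H77 construct carries P1496L and S2204I. Twenty-point, 3-fold dilutions were fitted four-parametrically for EC50, and CC50 was taken from multiplexed Cell Titer-Blue.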

[2] = test system: HCV genotype 1b (Con1) replicon in HUH-7 cells; experiment: HCV replicon luciferase reporter assay, genotype 1b; type: cell-based; conditions: Hepatitis C virus, Huh-7, 72 h, HCV genotype 1b replicon luciferase, 3 days incubation
In short: as §1

Row | SMILES | EC50 ([1]; read-out: LE_1a (EC50, range)) | EC50 ([2]; read-out: LE_1b (EC50, range)) | EC50 ([1]; read-out: LE_1a (EC50)) | EC50 ([2]; read-out: LE_1b (EC50))
1 | C[C@@H]1CC/C=C\[C@@H]2C[C@@]2(C(=O)NS(=O)(=O)C2(C)CC2)NC(=O)[C@@H]2C[C@@H](Oc3nc4c(c5ccccc35)OCCC4)CN2C(=O)[C@@H](NC(=O)OC(C)(C)C(F)(F)F)[C@H](C)C1 [Compound 6022, 1,1,1-trifluoro-2-methylpropan-2-yl((2R,6S,7R,9R,13aS,14aR,16aS,Z)-2-((3,4-dihydro-2H-pyrano[3,2-c]isoquinolin-6-yl)oxy)-7,9-dimethyl-14a-(((1-methylcyclopropyl)sulfonyl)carbamoyl)-5,16-dioxo-1,2,3,5,6,7,8,9,10,11,13a,14,14a,15,16,16a-hexadecahydrocyclopropa[e]pyrrolo[1,2-a][1,4]diazacyclopentadecin-6-yl)carbamate] | < 5.46 nM | < 5.46 nM |  | 
2 | CC[C@@H]1C[C@@H](C)CC/C=C\[C@@H]2C[C@@]2(C(=O)NS(=O)(=O)C2(C)CC2)NC(=O)[C@@H]2C[C@@H](Oc3nc4c(c5ccccc35)OCCC4)CN2C(=O)[C@H]1NC(=O)OC(C)(C)C [Compound 6023, tert-butyl ((2R,6S,7R,9S,13aS,14aR,16aS,Z)-2-((3,4-dihydro-2H-pyrano[3,2-c]isoquinolin-6-yl)oxy)-7-ethyl-9-methyl-14a-(((1-methylcyclopropyl)sulfonyl)carbamoyl)-5,16-dioxo-1,2,3,5,6,7,8,9,10,11,13a,14,14a,15,16,16a-hexadecahydrocyclopropa[e]pyrrolo[1,2-a][1,4]diazacyclopentadecin-6-yl)carbamate] | 4.82 to 103 nM | 4.82 to 103 nM |  | 
3 | CC[C@@H]1C[C@H](C)CC/C=C\[C@@H]2C[C@@]2(C(=O)NS(=O)(=O)C2(C)CC2)NC(=O)[C@@H]2C[C@@H](Oc3nc4c(c5ccccc35)OCCC4)CN2C(=O)[C@H]1NC(=O)OC(C)(C)C [Compound 6024, tert-butyl ((2R,6S,7R,9R,13aS,14aR,16aS,Z)-2-((3,4-dihydro-2H-pyrano[3,2-c]isoquinolin-6-yl)oxy)-7-ethyl-9-methyl-14a-(((1-methylcyclopropyl)sulfonyl)carbamoyl)-5,16-dioxo-1,2,3,5,6,7,8,9,10,11,13a,14,14a,15,16,16a-hexadecahydrocyclopropa[e]pyrrolo[1,2-a][1,4]diazacyclopentadecin-6-yl)carbamate] | < 5.46 nM | < 5.46 nM |  | 
4 | C[C@@H]1CC/C=C\[C@@H]2C[C@@]2(C(=O)NS(=O)(=O)C2(CF)CC2)NC(=O)[C@@H]2C[C@@H](Oc3nc4c(c5ccccc35)OCCC4)CN2C(=O)[C@@H](NC(=O)OC(C)(C)C)[C@H](C)C1 [Compound 6026, tert-butyl ((2R,6S,7R,9R,13aS,14aR,16aS,Z)-2-((3,4-dihydro-2H-pyrano[3,2-c]isoquinolin-6-yl)oxy)-14a-(((1-(fluoromethyl)cyclopropyl)sulfonyl)carbamoyl)-7,9-dimethyl-5,16-dioxo-1,2,3,5,6,7,8,9,10,11,13a,14,14a,15,16,16a-hexadecahydrocyclopropa[e]pyrrolo[1,2-a][1,4]diazacyclopentadecin-6-yl)carbamate] | < 5.46 nM | < 5.46 nM | 1.13 nM | 0.7 nM
5 | CC[C@@H]1C[C@H](C)CC/C=C\[C@@H]2C[C@@]2(C(=O)NS(=O)(=O)C2(C)CC2)NC(=O)[C@@H]2C[C@@H](Oc3nc4c(c5ccccc35)OCCC4)CN2C(=O)C1NC(=O)OC(C)(C)C(F)(F)F (stereo partly drawn) [Compound 6028, 1,1,1-trifluoro-2-methylpropan-2-yl((2R,6S,7R,9R,13aS,14aR,16aS,Z)-2-((3,4-dihydro-2H-pyrano[3,2-c]isoquinolin-6-yl)oxy)-7-ethyl-9-methyl-14a-(((1-methylcyclopropyl)sulfonyl)carbamoyl)-5,16-dioxo-1,2,3,5,6,7,8,9,10,11,13a,14,14a,15,16,16a-hexadecahydrocyclopropa[e]pyrrolo[1,2-a][1,4]diazacyclopentadecin-6-yl)carbamate] | < 5.46 nM | < 5.46 nM |  | 
6 | C[C@H]1CC/C=C\[C@@H]2C[C@@]2(C(=O)NS(=O)(=O)C2(CF)CC2)NC(=O)[C@@H]2C[C@@H](Oc3nc4c(c5ccccc35)OCCC4)CN2C(=O)[C@@H](NC(=O)OC(C)(C)C(F)(F)F)[C@H](C)C1 [Compound 6029, 1,1,1-trifluoro-2-methylpropan-2-yl((2R,6S,7R,9S,13aS,14aR,16aS,Z)-2-((3,4-dihydro-2H-pyrano[3,2-c]isoquinolin-6-yl)oxy)-14a-(((1-(fluoromethyl)cyclopropyl)sulfonyl)carbamoyl)-7,9-dimethyl-5,16-dioxo-1,2,3,5,6,7,8,9,10,11,13a,14,14a,15,16,16a-hexadecahydrocyclopropa[e]pyrrolo[1,2-a][1,4]diazacyclopentadecin-6-yl)carbamate] | 4.82 to 103 nM | 4.82 to 103 nM |  | 
7 | C[C@@H]1CC/C=C\[C@@H]2C[C@@]2(C(=O)NS(=O)(=O)C2(CF)CC2)NC(=O)[C@@H]2C[C@@H](Oc3nc4c(c5ccccc35)OCCC4)CN2C(=O)[C@@H](NC(=O)OC(C)(C)C(F)(F)F)[C@H](C)C1 [Compound 6030, 1,1,1-trifluoro-2-methylpropan-2-yl((2R,6S,7R,9R,13aS,14aR,16aS,Z)-2-((3,4-dihydro-2H-pyrano[3,2-c]isoquinolin-6-yl)oxy)-14a-(((1-(fluoromethyl)cyclopropyl)sulfonyl)carbamoyl)-7,9-dimethyl-5,16-dioxo-1,2,3,5,6,7,8,9,10,11,13a,14,14a,15,16,16a-hexadecahydrocyclopropa[e]pyrrolo[1,2-a][1,4]diazacyclopentadecin-6-yl)carbamate] | < 5.46 nM | < 5.46 nM | 1.43 nM | 0.81 nM
8 | C[C@H]1CC/C=C\[C@@H]2C[C@@]2(C(=O)NS(=O)(=O)C2(CF)CC2)NC(=O)[C@@H]2C[C@@H](Oc3nc4c(c5ccccc35)OCCC4)CN2C(=O)[C@@H](NC(=O)OC(C)(C)C(C)(F)F)[C@H](C)C1 [Compound 6031, 3,3-difluoro-2-methylbutan-2-yl((2R,6S,7R,9S,13aS,14aR,16aS,Z)-2-((3,4-dihydro-2H-pyrano[3,2-c]isoquinolin-6-yl)oxy)-14a-(((1-(fluoromethyl)cyclopropyl)sulfonyl)carbamoyl)-7,9-dimethyl-5,16-dioxo-1,2,3,5,6,7,8,9,10,11,13a,14,14a,15,16,16a-hexadecahydrocyclopropa[e]pyrrolo[1,2-a][1,4]diazacyclopentadecin-6-yl)carbamate] | 4.82 to 103 nM | 4.82 to 103 nM |  | 
9 | C[C@H]1CC/C=C\[C@@H]2C[C@@]2(C(=O)NS(=O)(=O)C2(C)CC2)NC(=O)[C@@H]2C[C@@H](Oc3nc4c(c5ccccc35)OCCC4)CN2C(=O)[C@@H](NC(=O)OC(C)(C)C(C)(F)F)[C@H](C)C1 [Compound 6033, 3,3-difluoro-2-methylbutan-2-yl((2R,6S,7R,9S,13aS,14aR,16aS,Z)-2-((3,4-dihydro-2H-pyrano[3,2-c]isoquinolin-6-yl)oxy)-7,9-dimethyl-14a-(((1-methylcyclopropyl)sulfonyl)carbamoyl)-5,16-dioxo-1,2,3,5,6,7,8,9,10,11,13a,14,14a,15,16,16a-hexadecahydrocyclopropa[e]pyrrolo[1,2-a][1,4]diazacyclopentadecin-6-yl)carbamate] | 4.82 to 103 nM | < 5.46 nM | 10.7 nM | 4.38 nM
10 | C[C@@H]1CC/C=C\[C@@H]2C[C@@]2(C(=O)NS(=O)(=O)C2(C)CC2)NC(=O)[C@@H]2C[C@@H](Oc3nc4c(c5ccccc35)OCCC4)CN2C(=O)[C@@H](NC(=O)OC(C)(C)C(C)(F)F)[C@H](C)C1 [Compound 6034, 3,3-difluoro-2-methylbutan-2-yl((2R,6S,7R,9R,13aS,14aR,16aS,Z)-2-((3,4-dihydro-2H-pyrano[3,2-c]isoquinolin-6-yl)oxy)-7,9-dimethyl-14a-(((1-methylcyclopropyl)sulfonyl)carbamoyl)-5,16-dioxo-1,2,3,5,6,7,8,9,10,11,13a,14,14a,15,16,16a-hexadecahydrocyclopropa[e]pyrrolo[1,2-a][1,4]diazacyclopentadecin-6-yl)carbamate] | < 5.46 nM | < 5.46 nM |  | 
11 | COc1cc2ccccc2c(O[C@@H]2C[C@H]3C(=O)N[C@]4(C(=O)NS(=O)(=O)C5CC5)C[C@H]4/C=C\CC[C@@H](C)C[C@@H](C)[C@H](NC(=O)OC(C)(C)C(C)(F)F)C(=O)N3C2)n1 [Compound 6036, 3,3-difluoro-2-methylbutan-2-yl((2R,6S,7R,9R,13aS,14aR,16aS,Z)-14a-((cyclopropylsulfonyl)carbamoyl)-2-((3-methoxyisoquinolin-1-yl)oxy)-7,9-dimethyl-5,16-dioxo-1,2,3,5,6,7,8,9,10,11,13a,14,14a,15,16,16a-hexadecahydrocyclopropa[e]pyrrolo[1,2-a][1,4]diazacyclopentadecin-6-yl)carbamate] | < 5.46 nM | < 5.46 nM | 0.53 nM | 0.38 nM
12 | COc1cc2ccccc2c(O[C@@H]2C[C@H]3C(=O)N[C@]4(C(=O)NS(=O)(=O)C5(CF)CC5)C[C@H]4/C=C\CC[C@@H](C)C[C@@H](C)[C@H](NC(=O)OC(C)(C)C(C)(F)F)C(=O)N3C2)n1 [Compound 6038, 3,3-difluoro-2-methylbutan-2-yl((2R,6S,7R,9R,13aS,14aR,16aS,Z)-14a-(((1-(fluoromethyl)cyclopropyl)sulfonyl)carbamoyl)-2-((3-methoxyisoquinolin-1-yl)oxy)-7,9-dimethyl-5,16-dioxo-1,2,3,5,6,7,8,9,10,11,13a,14,14a,15,16,16a-hexadecahydrocyclopropa[e]pyrrolo[1,2-a][1,4]diazacyclopentadecin-6-yl)carbamate] | < 5.46 nM | < 5.46 nM |  | 
